Reference: patent US4199568A, “Tetrapeptide amides” (Reckitt & Colman Products Limited, priority 1977, dated 1980)

Tests used:
[1] = test system: phenylquinone induced writhing; assay: mouse phenylquinone induced writhing test (Hendershot and Forsaith); type: in vivo; conditions: administered i.v.
Protocol: The compounds were also evaluated in the mouse phenylquinone induced writhing test of Hendershot L. C. and Forsaith J., J. Pharm. Exp. Therap.

opiate receptor sites = assay: transmurally stimulated guinea pig ileum preparation (Kosterlitz and Watt), agonist activity compared with Met-enkephaline; type: cell-based; conditions: isolated guinea pig ileum twitch response, 0.1 Hz stimulation; dose response curve compared with Met-enkephaline
Source text: Thus for example they have affinity for opiate receptor sites and as such may be useful as anagesics, narcotic antagonists or anti-diarrhoeal agents. The test used for the detection of their agonist activity at opiate receptor sites is that of employing the transmurally stimulated guinea pig ileum preparation described in Kosterlitz H. W., and Watt A. J., Brit. J. Pharmacol, and Chemotherapy 33, […] (1968).
In the above mentioned test method of Kosterlitz and Watt male or female guinea pigs (Duncan Hartley strain) are killed by a blow on the head and a portion of the ileum removed and set up in an isolated organ bath of 50 ml volume. A `twitch` response is produced by low frequency (0.1 Hz) stimulation with 0.5 msec rectilinear pulses. The response is depressed by a large number of different pharmacologically active agents (local anaesthetics, smooth muscle depressants, presynaptic α-receptor stimulants, and narcotic agonists).
A test compound is dissolved in distilled water to produce a stock solution of concentration 1 mg/ml. Serial dilutions are carried out using Krebs solution to product concentrations of 10 ug, 1 ug and 0.1 ug/ml. The compound is tested by adding between 0.1-0.3 ml of the solutions to the organ bath. A dose response curve is then drawn and compared with that for Met-enkephaline.

Row | SMILES | ED50 [1] [µg/kg] | activity relative to Met-enkephaline (opiate receptor sites)
1 | CN[C@@H](Cc1ccc(O)cc1)C(=O)N[C@H](C)C(=O)NCC(=O)N(C)[C@@H](Cc1ccccc1)C(=O)NCCC[S+](C)[O-].Cl (stereo partly drawn) [Me-Tyr-D-Ala-Gly-MePhe-NH(CH2)3 SOMe, N-Methyl-L-tyrosyl-D-alanyl-glycyl-N-methyl-L-phenylalanine-3-methylsulphinylpropylamide hydrochloride] | 4 | approximately fifteen
2 | C[C@@H](NC(=O)[C@@H](N)Cc1ccc(O)cc1)C(=O)NCC(=O)N(C)[C@@H](Cc1ccccc1)C(=O)NCCC[S+](C)[O-].Cl (stereo partly drawn) [H-Tyr-D-Ala-Gly-MePhe-NH(CH2)3 SOMe, L-Tyrosyl-D-alanyl-glycyl-N-methyl-L-phenylalanine-3-methylsulphinylpropylamide hydrochloride] | 4.5 | approximately eleven
